These results are taken from patent US20100009970A1, “COMPOSITIONS AND METHODS FOR TREATMENT OF VIRAL DISEASES” (Combinatorx (Singapore) Pte. Ltd., priority 2008, published 2010).

One series is described as follows: in vitro. The following applies: human, CC50 (uM) [SG].
The test system of series [1] is Huh7 cells expressing a subgenomic RNA replicon of Con1 (genotype 1b) sequence origin. The series can be described thus: microbe, parasite or virus in culture. The following applies: Hepatitis C virus; for IC50: Huh-7, read-out: IC50 (uM) [SG]; for IC90: Huh-7.

A word on the IC50: it is the point on the concentration scale where inhibition reaches its midpoint. Broadly, the IC90 is the concentration needed for an effect of 90%. A higher IC90 goes with weaker potency.

Where only a bound is given, the exact number is not on record here.

Turning to `CSc1ccc(Oc2ccc(S(N)(=O)=O)cc2CN2CCN(c3ccccc3)CC2)cc1C` [Compound 93, 4-(3-methyl-4-(methylthio)phenoxy)-3-((4-phenylpiperazin-1-yl)methyl)benzenesulfonamide], the CC50 in “in vitro” amounted to 43.1 µM. Further, the IC50 in series [1] was found to be 20.2 µM.

Consider `CSc1ccc(Oc2ccc(S(N)(=O)=O)cc2CN(C)CCCN(C)C)cc1C` [Compound 94, 3-(((3-(dimethylamino)propyl)(methyl)amino)methyl)-4-(3-methyl-4-(methylthio)phenoxy)benzenesulfonamide], for which, in “in vitro”, the CC50 amounted to 15 µM. In series [1], the 90% effect level (IC90) was put at 7.38 µM and the IC50 amounted to 3.26 µM.

As to `CSc1ccc(Oc2ccc(S(N)(=O)=O)cc2CN2CCN(CCO)CC2)cc1C` [Compound 95, 3-((4-(2-hydroxyethyl)piperazin-1-yl)methyl)-4-(3-methyl-4-(methylthio)phenoxy)benzenesulfonamide], the CC50 in the series “in vitro” is over 50 µM. For the same molecule, in series [1], it took 17 µM to reach the 90% level (IC90) and the IC50 was 6.5 µM.

Molecule `CSc1ccc(Oc2ccc(S(N)(=O)=O)cc2CNCCN(C)C)cc1C` [Compound 96, 3-((2-(dimethylamino)ethylamino)methyl)-4-(3-methyl-4-(methylthio)phenoxy)benzenesulfonamide] returned a CC50 in “in vitro” of 19.4 µM. For the same molecule, in series [1], it took 5.89 µM to reach the 90% level (IC90) and the IC50 was 2.77 µM.

`CSc1ccc(Oc2ccc(S(N)(=O)=O)cc2CN(C)CCN(C)C)cc1C` [Compound 97, 3-(((2-(dimethylamino)ethyl)(methyl)amino)methyl)-4-(3-methyl-4-(methylthio)phenoxy)benzenesulfonamide]: the CC50 in “in vitro” was determined as 43.3 µM. For the same molecule, in series [1], the IC90 was 14 µM and the IC50 came out at 12.4 µM.

Molecule `CSc1ccc(N(C)c2ccc(Br)cc2CN(C)C)cc1C` [Compound 98, 4-Bromo-2-((dimethylamino)methyl)-N-methyl-N-(3-methyl-4-(methylthio)phenyl)aniline] returned a CC50 in “in vitro” of over 50 µM. Besides, in series [1], the IC90 came to 26.8 µM and the IC50 turned out to be 25 µM.

For `CSc1ccc(Oc2ccc(S(N)(=O)=O)cc2CN2CC[C@@H](N(C)C)C2)cc1C` [Compound 100, (R)-3-((3-(dimethylamino)pyrrolidin-1-yl)methyl)-4-(3-methyl-4-(methylthio)phenoxy)benzenesulfonamide], in “in vitro”, the CC50 was found to be 35.6 µM. In addition, in series [1], the IC90 came out at 10.6 µM and the IC50 stood at 5.03 µM.

For the molecule `CSc1ccc(Oc2ccc(S(N)(=O)=O)cc2CN2CCCC2)cc1C` [Compound 101, 4-(3-methyl-4-(methylthio)phenoxy)-3-(pyrrolidin-1-ylmethyl)benzenesulfonamide], the CC50 in “in vitro” came to 40.6 µM. In series [1], the 90% effect level (IC90) was put at 4.74 µM and the IC50 worked out at 1.74 µM.

`CSc1ccc(Oc2ccc(S(N)(=O)=O)cc2CN2CCC[C@@H]2CO)cc1C` [Compound 102, (R)-3-((2-(hydroxymethyl)pyrrolidin-1-yl)methyl)-4-(3-methyl-4-(methylthio)phenoxy)benzenesulfonamide] gave a CC50 in the series “in vitro” of over 50 µM. Further, in series [1], the 90% effect concentration (IC90) was determined as 17.6 µM and the concentration for half-maximal inhibition (IC50) was 6.76 µM.

With `CSc1ccc(Oc2ccc(S(N)(=O)=O)cc2CN2CCC[C@H]2CO)cc1C` [Compound 103, (S)-3-((2-(hydroxymethyl)pyrrolidin-1-yl)methyl)-4-(3-methyl-4-(methylthio)phenoxy)benzenesulfonamide], in the series “in vitro”, the CC50 was over 50 µM. In series [1], the 90% effect level (IC90) was put at 17.6 µM and the 50% inhibitory concentration (IC50) is 6.88 µM.

Turning to `COC[C@@H]1CCCN1Cc1cc(S(N)(=O)=O)ccc1Oc1ccc(SC)c(C)c1` [Compound 104, (S)-3-((2-(methoxymethyl)pyrrolidin-1-yl)methyl)-4-(3-methyl-4-(methylthio)phenoxy)benzenesulfonamide], the CC50 in “in vitro” was over 50 µM. For the same molecule, the half-maximal inhibitory concentration (IC50) in series [1] is 27.8 µM.

As to `CSc1ccc(Oc2ccc(S(N)(=O)=O)cc2CN2CCC[C@H]2CN2CCCC2)cc1C` [Compound 105, (S)-4-(3-methyl-4-(methylthio)phenoxy)-3-(((2-pyrrolidin-1-ylmethyl)pyrrolidin-1-yl)methyl)benzensulfonamide], the CC50 in “in vitro” was determined as 22.2 µM. In addition, in series [1], it took 6.86 µM to reach the 90% level (IC90) and the half-inhibitory concentration (IC50) stood at 6.38 µM.

Molecule `CSc1ccc(Oc2ccc(S(N)(=O)=O)cc2CN2CCN(C(C)C)CC2)cc1C` [Compound 106, 3-((4-isopropylpiperazin-1-yl)methyl)-4-(3-methyl-4-(methylthio)phenoxy)benzenesulfonamide] had a CC50 in the series “in vitro” of 24.3 µM. Further, in series [1], the concentration for an effect of 90% (IC90) turned out to be 8.21 µM and the 50% inhibitory concentration (IC50) was found to be 3.57 µM.

Molecule `CSc1ccc(N2CN(C)Cc3cc(S(N)(=O)=O)ccc32)cc1C` [Compound 107, 3-methyl-1-(3-methyl-4-(methylthio)phenyl)-1,2,3,4-tetrahydroquinazoline-6-sulfonamide] displayed a CC50 in “in vitro” of over 50 µM. Moreover, in series [1], the 90% effect level (IC90) was put at 12.8 µM and the concentration for half-maximal inhibition (IC50) was 4.84 µM.

For the molecule `CSc1ccc(Nc2ccc(S(N)(=O)=O)cc2CN(C)C)cc1C` [Compound 108, 3-((dimethylamino)methyl)-4-(3-methyl-4-(methylthio)phenylamino)benzensulfonamide], the CC50 in “in vitro” came to 44.9 µM. Further, in series [1], the IC90 turned out to be 17 µM and the IC50 is 2.64 µM.

With `CSc1ccc(Oc2ccc(S(N)(=O)=O)cc2CN2C[C@@H](O)C[C@@H]2CO)cc1C` [Compound 110, 3-(((2S,4R)-4-hydroxy-2-(hydroxymethyl)pyrrolidin-1-yl)methyl)-4-((3-methyl-4-methylthio)phenoxy)benzenesulfonamide], in “in vitro”, the CC50 is over 50 µM. For the same molecule, the IC50 in series [1] was 13.1 µM.

In “in vitro”, `CSc1ccc(Oc2ccc(S(N)(=O)=O)cc2CN2CCNCC2)cc1C` [Compound 111, 4-(3-methyl-4-(methylthio)phenoxy)-3-(piperazin-1-ylmethyl)benzenesulfonamide] yielded a CC50 of 46.3 µM. Moreover, in series [1], it took 22.6 µM to reach the 90% level (IC90) and the IC50 amounted to 7.12 µM.

Molecule `CC(C)C1CC[C@@H](c2ccc(Cl)c(Cl)c2)c2ccc(C(N)=O)cc21` (stereo partly drawn) [Isopropyl Sertraline A-Ring Carboxamide, (S)-5-(3,4-dichlorophenyl)-8-isopropyl-5,6,7,8-tetrahydronaphthalene-2-carboxamide] displayed a CC50 in the series “in vitro” of over 50 µM. In addition, the IC50 in series [1] stood at 38.9 µM.

On to `CC(C)C1CCC(c2ccc(Cl)c(Cl)c2)c2ccccc21` (centres unmarked) [Isopropyl Sertraline, 1-(3,4-dichlorophenyl)-4-isopropyl-1,2,3,4-tetrahydronaphthalene], for which the CC50 in “in vitro” was over 50 µM. For the same molecule, in series [1], the IC90 was 32.1 µM and the IC50 is 9.25 ± 0.95 µM. Moreover, the Emax in series [1] (Huh-7, read-out: Max Effect@CC30 (inhibition)) was found to be 97.96 ± 0.06%.

In the case of `CC(=O)Nc1ccc2c(c1)C(C(C)C)CCC2c1ccc(Cl)c(Cl)c1` (centres unmarked) [N-(5-(3,4-dichlorophenyl)-8-isopropyl-5,6,7,8-tetrahydronaphthalen-2-yl)acetamide], the CC50 in the series “in vitro” is over 50 µM. Besides, in series [1], the 90% effect level (IC90) was put at 37.7 µM and the IC50 turned out to be 15.8 µM.

On to `CC(=O)Nc1ccc2c(c1)[C@@H](N(C)CCO)CC[C@H]2c1ccc(Cl)c(Cl)c1` [N-((5S,8S)-5-(3,4-dichlorophenyl)-8-((2-hydroxyethyl)(methyl)amino)-5,6,7,8-tetrahydronaphthalen-2-yl)acetamide], for which the CC50 in the series “in vitro” was determined as 44.9 µM. In addition, the IC50 in series [1] is 13.2 µM.
